In EP4772186A1, “USE AND COMPOSITION OF POSTBIOTIC OF LACTOBACILLUS PARACASEI ET-22” (Inner Mongolia Yili Industrial Group Co., Ltd., priority 2023, dated 2025):

Assays:
multi-species biofilm = test: biomass of multi-species biofilm, crystal violet staining; type: cell-based, halitosis subjects (saliva)
Description: The association between biofilm biomass and halitosis degree were analyzed by evaluating biofilm formation under intervention with ET-22 viable bacteria, heat-inactivated bacteria, lysate, NAD, 2-hydroxy-3-phenylpropionic acid and peptidoglycan. Test method included the following.
(§1) Lysate Group: 10 µl of saliva was added to a 96-well plate, followed by separate addition of ET-22 viable bacteria (1.0×10^9 CFU/ml), ET-22 heat-inactivated bacterial cells (obtained by inactivating viable bacteria at 1.0×10^9 CFU/ml), and lysate (obtained by inactivating and filtering viable bacteria at 1.0×10^9 CFU/ml), each at 100 µl. Then, 80 µl of SHI medium was added. The plate was placed in an anaerobic box and cultured anaerobically at 37°C for 10 hours. Six replicates were set for each group.
as §1, with “NAD” for “Lysate”, “heat-inactivating” for “inactivating”, “NAD (100 µg/ml),” for “lysate (obtained by inactivating and filtering viable bacteria at 1.0×10^9 CFU/ml),”, “group. […]” for “group.”
(5) The well plate was placed in a microplate reader and the biofilm biomass was measured at 600 nm.

fadA = test: RT-PCR of virulence factors in multi-species biofilm; type: cell-based, Fusobacterium nucleatum; conditions: relative to ET-22 viable bacteria (ET22-L) and ET-22 heat-inactivated bacteria (ET22-HK)
Description: 100 µl of saliva was added to a 24-well plate, then 100 µl of the corresponding concentration solution was added respectively to the experimental groups, and finally 800 µl of SHI medium was added. The plate was placed in an anaerobic box and cultured anaerobically at 37°C for 10 hours. Then, the supernatant was discarded, and the multi-species biofilm adhered to the well plate was obtained. After discarding the supernatant from the incubated biofilm, the biofilm adhered to the bottom of the well plate was re-suspended with sterile water by pipetting, transferred to a 1.5 ml centrifuge tube, and stored until gene sequencing was performed.
This example evaluated the effects of lysate, NAD, 2-hydroxy-3-phenylpropionic acid, polypeptide GP(Hyp)GAG, and peptidoglycan on halitosis virulence factors, including cdl, fadA, mgl, and gtfb. The gene cdl can regulate the expression of L-cysteine […], which can catalyze the degradation of protein substrate to produce VSC, thereby causing halitosis. Fusobacterium nucleatum secretes an amyloid-like adhesin (fadA) via the fap2-like autotransporter protein to enhance its virulence. […]
After the sample RNA was reverse-transcribing into cDNA, RT-PCR reaction was performed to detect biofilm-related virulence factors. Experimental results were calculated using the 2^-△△CT method. […]

O=C(O)C(O)Cc1ccccc1 (stereo not drawn) [2-hydroxy-3-phenylpropionic acid]
biofilm biomass (multi-species biofilm; compared with CK group, optical density, pure components 100 µg/ml, others from 1.0×10^9 CFU/ml, 37°C 10 hours): significant decrease | intervention effect on the biofilm biomass (multi-species biofilm; relative to ET-22 viable bacteria and heat-inactivated bacteria): better | inhibitory effect on the expression of virulence factor fadA (fadA): better
